{"source": "paper PMC5601180", "about": "“Uptake and metabolism of sulphated steroids by the blood–brain barrier in the adult male rat” (Journal of Neurochemistry, 2017)", "key": {"efflux transporters": {"test_system": "efflux transporters", "experiment": "Brain perfusion in situ with efflux transporter inhibitors co-perfused with 3H-steroid sulphate", "format": "in vivo, rat", "conditions": "GF120918 3 μM or MK571 50 μM co-perfused, alone or in combination; 0.5 min perfusion", "experimental": "Figure 3 Effect of the efflux inhibitors GF120918 (3 μM) and MK571 (50 μM), alone or in combination, on the brain uptake of either ^3H‐dehydroepiandrosterone sulphate (DHEAS) or ^3H‐pregnenolone sulphate (PregS) after 0.5 min perfusion. […] All values mean ± SEM, n = 3. The effect of 0.5 mM of the corresponding unlabelled steroid sulphate (SS) in addition to the inhibitors is also shown. […] The inhibitors GF120918 and MK571 were dissolved in dimethylsulphoxide to a maximum final concentration of 0.8% (v/v) in the perfusate."}, "[1]": {"experiment": "Rat brain perfusion in situ: uptake of 3H-steroid sulphates and markers (Vd, Kin, PS)", "conditions": "for K in, unidirectional transfer coefficient / PS, permeability–surface area product: 0.5 min perfusion; for K in, unidirectional transfer coefficient: corrected for vascular space (sucrose Vd), mean ± SEM, n ≥ 3; for PS, permeability–surface area product: from K in by Renkin–Crone equation with diazepam K in as flow", "experimental": "Each animal also received intraperitoneal heparin, 10 000 U/kg. Body temperature was maintained at 37°C with a heating pad.\nFor analysis of free and sulphated steroids and for steryl‐sulfate sulfohydrolase (EC 3.1.6.2; trivial name steroid sulphatase) assays, both hemispheres were perfused, via right and left common carotid arteries, and 0.8 mM MgCl2 replaced 0.8 mM MgSO4 in the solution. The perfusate was delivered at a constant rate of 6 mL/min for hemi‐perfusions and 12 mL/min for bilateral perfusions, maintaining a net perfusion pressure of 40–70 mm Hg.\nThe remaining tissue of the right hemisphere was homogenised and samples (~50 mg) taken in triplicate (“remainder samples”). Triplicate samples of the perfusate were also taken. Samples were weighed into vials and dissolved (48 h at 20°C) in 0.5 mL Solvable before addition of 4.5 mL Optiphase 2 scintillation fluid for counting of radioactivity.\nBrain uptake was calculated as a volume of distribution V d, where V d (μL/g) = (dpm/g tissue)/(dpm/μL perfusate). The unidirectional transfer coefficients, (K in, μL/g/min), for DHEAS and for PregS were calculated from the V d at 0.5 min, corrected with the V d for the vascular space marker sucrose."}, "[2]": {"experiment": "Bilateral brain perfusion, capillary depletion and separation of free and sulphated 3H-steroids", "format": "in vivo, rat", "experimental": "Brains were bilaterally perfused for 0.5 min with ^3H‐labelled DHEAS 1.25 or 6.0 μCi (0.046 or 0.221 MBq)/mL (13.5 or 64.9 nM) or PregS 1.0 μCi (0.037 MBq)/mL (47.6 nM). The hindbrain was removed and each hemisphere homogenised in 2 vols (w/v) buffer containing (in mM) NaCl 141, KCl 4, NaH2PO4 1, CaCl2 2.8, MgCl2 1, HEPES 10, D‐glucose 10, pH 7.4. A sample of the homogenate of the whole right hemisphere was removed for scintillation counting, and the remainder retained as the whole brain homogenate.\nThe left hemisphere homogenate was separated into capillary‐enriched and capillary‐depleted fractions by the method of Triguero et al. (1990). For this, an equal volume of 26% dextran (w/w) solution was added to the homogenate and a sample taken for liquid scintillation counting before centrifugation at 5300 g for 15 min at 4°C. The upper layer was taken as the capillary‐depleted fraction and the pellet as the capillary‐enriched fraction.\nBefore extraction, fractions were sonicated in 5 vols ice‐cold, 5 mM potassium phosphate buffer, pH 7. Small portions (150 μL) were removed for measurement of protein content (Bradford 1976) and total radioactivity. For the latter, homogenate was solubilised (15 min, 20°C) in 10 vols Soluene then bleached (2 h, 50°C) with 0.3 vol hydrogen peroxide before counting in Ecoscint H containing Triton X‐100 (6% v/v), glacial acetic acid (0.6% v/v) and butylated hydroxytoluene (2% w/v). The remainder of each homogenate was extracted as described in detail elsewhere (Ebner et al. 2006; Sujkovic et al. 2009), to give free steroid and steroid sulphate fractions. First, homogenates were extracted into 20 vols ethanol containing acetic acid 3% (v/v). After centrifugation (28 000 g, 30 min, 25°C) to remove denatured protein, the extracts were delipidated by partitioning three times against 10 vols isooctane. Extracts were dried down under vacuum and redissolved in ethanol, which was then diluted to 20% v/v in 5 mM potassium phosphate buffer, pH 7.0 at a total volume of 20 ml. Separation of free and sulphated steroids was achieved by passage through a 60 mg Oasis MAX® cartridge. After washing the cartridge with 5 mL ethanol at 20% v/v in ammonium acetate (20 mM, pH 7), free steroids were eluted in 4 mL ethyl acetate. Passage of 20 mL ethanol at 60% v/v in formate/pyridine buffer (20 mM, pH 3) eluted any steroid glucuronides present. Finally, steroid sulphates were eluted in 30 mL 60% v/v ethanol containing ammonium carbonate 1% (w/v). To measure the radioactivity of each fraction, portions were dried down and then redissolved in Ecoscint H for counting. The remainder was dried down, redissolved in ethanol 96% v/v and stored at −20°C for subsequent analysis by TLC."}, "[3]": {"experiment": "TLC analysis of 3H-steroid metabolites in brain fractions after perfusion", "format": "in vivo, rat", "conditions": "after 0.5 min perfusion with the 3H-steroid sulphate", "from_the_text": "For the analysis of ^3H‐steroid metabolites, samples were spotted onto TLC plates for chromatography in the following solvent systems: A (for sulphated steroids), ethyl acetate:ethanol:ammonia (5 : 5 : 1, v/v); B (for free steroids) cyclohexane:n‐butyl acetate (1 : 2, v/v); C (for acetylated steroids), isooctane:ethyl acetate (13 : 7, v/v). Non‐radioactive steroid standards could be visualised by exposure to iodine vapour whereas the ^3H‐steroids were detected by placing the TLC plates in contact with imaging film for subsequent visualisation in a phosphorimager. Additional analysis of the steroid sulphates employed elution from the TLC plate in ammoniated ethanol then drying down and redissolving in sodium acetate buffer, 0.5 M, pH 5.0 for desulphation by incubation with Helix sulphatase (1 mg/mL, 40°C overnight followed by 55°C for 3 h). The resulting free steroids were adsorbed onto a 60 mg Oasis HLB® cartridge and eluted in 5 mL ethyl acetate. This eluate was dried down and analysed by TLC as above for free steroids. Further identification of ^3H‐steroid metabolites was obtained by acetylating them alongside both ^3H‐labelled and non‐radioactive standards. The TLC eluates or standards were dried down and redissolved in 200 μL pyridine. An equal volume of acetic anhydride was then added followed by incubation at 37°C for 2 h. […]"}, "[4]": {"conditions": "after 0.5 min bilateral perfusion, mean ± SEM, n = 5"}}}
{"molecule": "CN(C)C(=O)CCSC(SCCC(=O)O)c1cccc(/C=C/c2ccc3ccc(Cl)cc3n2)c1", "note": "(stereo not drawn) [MK571, 3‐[[[3‐[(1E)‐2‐(7‐Chloro‐2‐quinolinyl)ethenyl]phenyl][[3‐(dimethylamino)‐3‐oxopropyl]thio]methyl]thio]propanoic acid]", "values": [{"measurement": "effect on brain uptake of 3H-DHEAS", "setting": "efflux transporters", "value": "significant decrease in uptake"}, {"measurement": "effect on brain uptake of 3H-PregS", "setting": "efflux transporters", "value": "significant decrease in uptake"}]}
{"molecule": "CC(=O)[C@H]1CCC2C3CC=C4C[C@@H](OS(=O)(=O)O)CC[C@]4(C)C3CC[C@@]21C", "note": "(stereo partly drawn) [PregS, pregnenolone sulphate]", "values": [{"measurement": "K in, unidirectional transfer coefficient", "setting": "[1]; Cerebellum", "value": "256.8 ± 43.7", "unit": "µL/g/min"}, {"measurement": "PS, permeability–surface area product", "setting": "[1]; Cerebellum", "value": "392.6 ± 103.4", "unit": "µL/g/min"}, {"measurement": "K in, unidirectional transfer coefficient", "setting": "[1]; Hippocampus", "value": "292.1 ± 24.2", "unit": "µL/g/min"}, {"measurement": "PS, permeability–surface area product", "setting": "[1]; Hippocampus", "value": "303.5 ± 26.0", "unit": "µL/g/min"}, {"measurement": "K in, unidirectional transfer coefficient", "setting": "[1]; Hypothalamus", "value": "277.6 ± 48.8", "unit": "µL/g/min"}, {"measurement": "PS, permeability–surface area product", "setting": "[1]; Hypothalamus", "value": "295.8 ± 54.8", "unit": "µL/g/min"}, {"measurement": "K in, unidirectional transfer coefficient", "setting": "[1]; Medulla", "value": "196.4 ± 39.5", "unit": "µL/g/min"}, {"measurement": "PS, permeability–surface area product", "setting": "[1]; Medulla", "value": "328.6 ± 117.5", "unit": "µL/g/min"}, {"measurement": "position of log PS in plot against cLog Poct relative to the line for passively permeating compounds", "setting": "[1]; PS from K in as slope of Vd against time 0.25 to 0.5 min, implies net efflux", "value": "below the 95% confidence limits of the line of best fit for passively permeating compounds"}, {"measurement": "K in, unidirectional transfer coefficient", "setting": "[1]; Parietal cortex", "value": "351.5 ± 9.8", "unit": "µL/g/min"}, {"measurement": "PS, permeability–surface area product", "setting": "[1]; Parietal cortex", "value": "377.2 ± 11.3", "unit": "µL/g/min"}, {"measurement": "K in, unidirectional transfer coefficient", "setting": "[1]; Remainder of brain tissue", "value": "311.2 ± 20.8", "unit": "µL/g/min"}, {"measurement": "PS, permeability–surface area product", "setting": "[1]; Remainder of brain tissue", "value": "326.5 ± 22.9", "unit": "µL/g/min"}, {"measurement": "K in, unidirectional transfer coefficient", "setting": "[1]; Striatum", "value": "328.6 ± 41.9", "unit": "µL/g/min"}, {"measurement": "PS, permeability–surface area product", "setting": "[1]; Striatum", "value": "351.5 ± 48.1", "unit": "µL/g/min"}, {"measurement": "K in, unidirectional transfer coefficient", "setting": "[1]; Sup. colliculus", "value": "404.9 ± 30.4", "unit": "µL/g/min"}, {"measurement": "PS, permeability–surface area product", "setting": "[1]; Sup. colliculus", "value": "419.6 ± 32.5", "unit": "µL/g/min"}, {"measurement": "V d, corrected for sucrose space (vascular volume), control", "setting": "[1]; rat, in vivo", "value": "165.63 ± 10.40", "unit": "µL/g"}, {"measurement": "time at which brain uptake (Vd) reached a maximum", "setting": "[1]; rat, in vivo", "value": "≤ 1", "unit": "min"}, {"measurement": "radioactivity in capillary fraction", "setting": "[2]; [4]", "value": "1856 ± 245", "unit": "dpm/mg protein"}, {"measurement": "radioactivity in parenchyma fraction", "setting": "[2]; [4]", "value": "1988 ± 328", "unit": "dpm/mg protein"}, {"measurement": "recovery of total homogenate radioactivity into capillary fraction", "setting": "[2]; [4]", "value": "8.8 ± 1.8", "unit": "%"}, {"measurement": "recovery of total homogenate radioactivity into parenchyma fraction", "setting": "[2]; [4]", "value": "68.0 ± 10.0", "unit": "%"}, {"measurement": "percentage of 3H-label as free steroid, parenchyma versus capillary", "setting": "[2]; after 0.5 min perfusion, Fig. 4, p < 0.02", "value": "significantly higher percentage of the free steroid in the parenchyma than in the brain capillaries"}, {"measurement": "desulphation on uptake into brain", "setting": "[2]; within 0.5 min of uptake, brain perfusion in situ", "value": "> 50", "unit": "%"}, {"measurement": "metabolism in brain fractions", "setting": "[3]", "value": "no further metabolism of PregS beyond the liberation of free steroid pregnenolone"}]}
{"molecule": "COc1cc2c(cc1OC)CN(CCc1ccc(NC(=O)c3cccc4c(=O)c5cccc(OC)c5[nH]c34)cc1)CC2.Cl", "note": "[GF120918, 9,10‐dihydro‐5‐methoxy‐9‐oxo‐N‐[4‐[2‐(1,2,3,4‐tetrahydro‐6,7‐dimethoxy‐2‐isoquinolinyl)ethyl]phenyl]‐4‐acridine‐carboxamide hydrochloride]", "values": [{"measurement": "effect on brain uptake of 3H-DHEAS", "setting": "efflux transporters", "value": "significant decrease in uptake"}, {"measurement": "effect on brain uptake of 3H-PregS", "setting": "efflux transporters", "value": "significant decrease in uptake"}]}
